Reference: ChEMBL document CHEMBL1201862, “PubChem BioAssay data set” (2004)
Calls of active or inactive are those of the source.

Tests used:
Troponin, cardiac muscle = Troponin, cardiac muscle (Homo sapiens, UniProt P19429+P45379+P63316); assay: Fluorescence-based biochemical high throughput dose response assay for activators of the calcium sensitivity of cardiac Regulated Thin Filaments (RTF). [Related pubchem assays (depositor defined):AID493008, AID493018, AID504382, AID504383]; type: protein-complex assay
H4 = assay: Luminescence Cell-Based Dose Response HTS to Identify Activators of 5'UTR Stem-Loop Driven Prion Protein mRNA Translation in H4 Neuroglioblastoma Cells. [Related pubchem assays: 1829 (Project Summary), 1814 (Primary HTS)]; type: functional; details: Homo sapiens
[1] = Luminescence Cell-Based Dose Response HTS to Identify Activators of Luciferase Translation or Activity in H4 […] Cells. [Related pubchem assays: 1829 (Project Summary), 1814 (Primary HTS)]; type: functional
[2] = biological target: T1, Short transient receptor potential channel 4 (Mus musculus, UniProt Q9QUQ5); assay: potentiation of DAMGO-evoked TRPC4 calcium signal – cell-based, HEK293 TRPC4/mu-opioid, Fluo-4 calcium, EC20 DAMGO, dose response (AID 434941); type: functional
T1 sequence (Q9QUQ5 whole entry): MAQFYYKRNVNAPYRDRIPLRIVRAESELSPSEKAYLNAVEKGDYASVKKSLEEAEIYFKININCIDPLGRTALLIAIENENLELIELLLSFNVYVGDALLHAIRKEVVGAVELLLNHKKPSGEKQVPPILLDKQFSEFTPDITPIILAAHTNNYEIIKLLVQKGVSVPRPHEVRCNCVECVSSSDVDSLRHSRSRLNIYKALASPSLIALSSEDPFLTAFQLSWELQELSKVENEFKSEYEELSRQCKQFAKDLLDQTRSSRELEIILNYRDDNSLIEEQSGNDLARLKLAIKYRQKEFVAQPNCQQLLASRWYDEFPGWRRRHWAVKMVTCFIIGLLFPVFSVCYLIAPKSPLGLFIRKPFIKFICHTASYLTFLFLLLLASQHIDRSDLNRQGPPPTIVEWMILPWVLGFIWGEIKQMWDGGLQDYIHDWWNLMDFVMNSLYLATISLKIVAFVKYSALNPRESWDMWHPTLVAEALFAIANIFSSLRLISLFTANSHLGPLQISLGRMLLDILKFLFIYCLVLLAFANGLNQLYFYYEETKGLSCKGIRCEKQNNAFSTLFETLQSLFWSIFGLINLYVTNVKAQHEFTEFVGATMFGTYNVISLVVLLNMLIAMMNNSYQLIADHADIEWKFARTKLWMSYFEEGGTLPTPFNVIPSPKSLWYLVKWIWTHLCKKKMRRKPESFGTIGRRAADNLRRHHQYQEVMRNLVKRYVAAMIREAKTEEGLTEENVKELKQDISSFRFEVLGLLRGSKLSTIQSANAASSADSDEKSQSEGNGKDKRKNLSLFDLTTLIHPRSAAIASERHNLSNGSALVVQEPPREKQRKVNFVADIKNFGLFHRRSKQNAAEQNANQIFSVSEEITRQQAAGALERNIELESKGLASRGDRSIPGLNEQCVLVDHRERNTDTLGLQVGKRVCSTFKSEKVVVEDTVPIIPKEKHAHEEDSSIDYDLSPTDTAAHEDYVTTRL

[3] = biological target: NACHT, LRR and PYD domains-containing protein 3 (Homo sapiens, UniProt Q96P20); assay: NALP3 inhibitors in yeast, dose response, luminescent (AID 488799); type: functional
Mucolipin-3 = biological target: T2, Mucolipin-3 (Homo sapiens, UniProt Q8TDD5); assay: Fluorescence counterscreen assay for […] agonists: dose response cell-based high-throughput screening assay to identify agonists of the transient receptor potential channel ML3 (TRPML3). [Related pubchem assays: 1424, 1448 ]; type: functional
T2 sequence (Q8TDD5 whole entry): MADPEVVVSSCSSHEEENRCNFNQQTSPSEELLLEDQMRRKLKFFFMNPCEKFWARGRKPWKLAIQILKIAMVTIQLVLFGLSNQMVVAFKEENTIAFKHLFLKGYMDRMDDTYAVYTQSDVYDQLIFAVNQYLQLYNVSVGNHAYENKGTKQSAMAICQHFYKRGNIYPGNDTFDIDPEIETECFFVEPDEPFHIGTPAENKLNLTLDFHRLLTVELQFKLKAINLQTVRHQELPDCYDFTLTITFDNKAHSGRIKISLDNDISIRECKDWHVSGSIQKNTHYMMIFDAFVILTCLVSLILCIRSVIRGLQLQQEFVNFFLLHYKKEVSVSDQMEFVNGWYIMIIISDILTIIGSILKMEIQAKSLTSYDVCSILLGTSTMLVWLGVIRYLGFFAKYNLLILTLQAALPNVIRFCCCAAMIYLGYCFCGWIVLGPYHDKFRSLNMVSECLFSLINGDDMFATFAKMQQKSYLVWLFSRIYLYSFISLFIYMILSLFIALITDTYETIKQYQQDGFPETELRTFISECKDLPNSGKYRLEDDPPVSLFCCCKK

Ion channel NompC = Ion channel NompC (Danio rerio, UniProt Q7T1G6); assay: Dose response cell-based high-throughput screening assay for agonists of the transient receptor potential channel N1 (TRPN1). [Related pubchem assays (depositor defined):AID1424, AID1448]; type: functional
Cannabinoid receptor 2 [4] = biological target: T3, Cannabinoid receptor 2 (Homo sapiens, UniProt P34972); assay: SAR analysis of antagonists of the Cannabinoid Receptor 2 using an Image-Based Assay - Set 3. [Related pubchem assays (depositor defined):AID2013, AID2026]; type: functional
[5] = biological target: T4, G-protein coupled receptor 35 (Homo sapiens, UniProt Q9HC97); assay: SAR analysis of Antagonists of the GPR35 Receptor using an Image-Based Assay - Set 6. [Related pubchem assays (depositor defined):AID2013, AID2026]; type: functional
[6] = biological target: G-protein coupled receptor 55 (Homo sapiens, UniProt Q9Y2T6); assay: SAR Analysis of Selective Antagonists of GPR55 using an Image-Based Assay - Set 4. [Related pubchem assays (depositor defined):AID2013, AID2026]; type: functional;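 note: antagonism of response to 5 µM lysophosphatidylinositol agonist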
Cannabinoid receptor 2 [7] = biological target: T3, Cannabinoid receptor 2; assay: SAR analysis of agonists of the Cannabinoid Receptor 2 using an Image-Based Assay - Set 3. [Related pubchem assays (depositor defined):AID2013, AID2026]; type: functional
Cannabinoid receptor 1 [8] = biological target: T5, Cannabinoid receptor 1 (Homo sapiens, UniProt P21554); assay: SAR analysis of antagonists of the Cannabinoid Receptor 1 using an Image-Based Assay - Set 4. [Related pubchem assays (depositor defined):AID2013, AID2026]; type: functional
[9] = biological target: T4, G-protein coupled receptor 35; assay: SAR analysis of Agonists of the GPR35 Receptor using an Image-Based Assay - Set 4. [Related pubchem assays (depositor defined):AID2013, AID2026]; type: functional
Cannabinoid receptor 1 [10] = biological target: T5, Cannabinoid receptor 1; assay: SAR analysis of agonists of the Cannabinoid Receptor 1 using an Image-Based Assay - Set 4. [Related pubchem assays (depositor defined):AID2013, AID2026]; type: functional
X-box-binding protein 1 = X-box-binding protein 1 (Homo sapiens, UniProt P17861); type: functional, Cricetulus griseus;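 note: confirmatory dose-response counter-screen serving a CHOP assay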
[11] = luciferase reporter signal suppression in cells – H4 neuroglioma cells, luminescence, dose response (AID 1990); type: functional, cell-based
[12] = Luminescence Cell-Based Dose Response HTS to Identify Inhibitors of 5'UTR Stem-Loop Driven Prion Protein mRNA Translation in H4 Neuroglioblastoma Cells. [Related pubchem assays: 1827 (Project Summary), 1813 (Primary HTS)]; type: functional
[13] = biological target: DNA damage-inducible transcript 3 protein (Mus musculus, UniProt P35639); type: functional, Cricetulus griseus
[14] = alpha-synuclein stem-loop luciferase translation blockers – H4 neuroglioma cells, luminescence, confirmation (AID 1988); type: functional, cell-based

T5 sequence (P21554 whole entry): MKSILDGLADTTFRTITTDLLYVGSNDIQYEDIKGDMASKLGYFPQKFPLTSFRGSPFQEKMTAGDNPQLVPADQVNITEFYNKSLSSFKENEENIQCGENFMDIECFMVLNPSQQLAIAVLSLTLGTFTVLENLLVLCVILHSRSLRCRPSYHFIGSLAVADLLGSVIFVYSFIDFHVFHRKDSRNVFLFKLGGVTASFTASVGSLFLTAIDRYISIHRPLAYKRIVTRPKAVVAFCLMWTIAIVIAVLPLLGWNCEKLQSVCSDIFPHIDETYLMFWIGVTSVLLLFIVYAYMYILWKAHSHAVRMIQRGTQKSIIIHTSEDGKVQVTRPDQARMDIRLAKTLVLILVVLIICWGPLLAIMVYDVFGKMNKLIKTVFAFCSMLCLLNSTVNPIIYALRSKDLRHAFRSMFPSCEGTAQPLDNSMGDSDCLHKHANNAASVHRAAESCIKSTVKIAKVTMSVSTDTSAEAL
T4 sequence (Q9HC97 whole entry): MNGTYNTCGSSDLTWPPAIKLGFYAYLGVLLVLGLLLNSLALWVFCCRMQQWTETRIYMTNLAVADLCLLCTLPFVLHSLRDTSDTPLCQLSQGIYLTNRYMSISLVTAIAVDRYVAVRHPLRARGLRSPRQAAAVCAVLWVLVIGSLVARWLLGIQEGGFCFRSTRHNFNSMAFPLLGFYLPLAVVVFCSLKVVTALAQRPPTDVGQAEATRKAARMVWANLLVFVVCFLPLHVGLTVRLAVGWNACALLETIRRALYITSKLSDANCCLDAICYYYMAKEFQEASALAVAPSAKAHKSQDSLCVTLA
T3 sequence (P34972 whole entry): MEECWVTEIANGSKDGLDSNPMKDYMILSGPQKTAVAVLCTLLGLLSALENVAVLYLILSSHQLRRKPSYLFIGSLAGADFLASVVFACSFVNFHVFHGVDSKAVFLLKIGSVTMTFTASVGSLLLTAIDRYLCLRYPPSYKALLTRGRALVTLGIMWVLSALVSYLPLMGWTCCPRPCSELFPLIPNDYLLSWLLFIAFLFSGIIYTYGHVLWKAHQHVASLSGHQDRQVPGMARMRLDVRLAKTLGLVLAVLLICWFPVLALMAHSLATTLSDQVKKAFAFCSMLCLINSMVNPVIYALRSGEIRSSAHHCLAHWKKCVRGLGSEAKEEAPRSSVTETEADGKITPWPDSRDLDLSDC
Chain of Ion channel NompC (Q7T1G6 whole entry): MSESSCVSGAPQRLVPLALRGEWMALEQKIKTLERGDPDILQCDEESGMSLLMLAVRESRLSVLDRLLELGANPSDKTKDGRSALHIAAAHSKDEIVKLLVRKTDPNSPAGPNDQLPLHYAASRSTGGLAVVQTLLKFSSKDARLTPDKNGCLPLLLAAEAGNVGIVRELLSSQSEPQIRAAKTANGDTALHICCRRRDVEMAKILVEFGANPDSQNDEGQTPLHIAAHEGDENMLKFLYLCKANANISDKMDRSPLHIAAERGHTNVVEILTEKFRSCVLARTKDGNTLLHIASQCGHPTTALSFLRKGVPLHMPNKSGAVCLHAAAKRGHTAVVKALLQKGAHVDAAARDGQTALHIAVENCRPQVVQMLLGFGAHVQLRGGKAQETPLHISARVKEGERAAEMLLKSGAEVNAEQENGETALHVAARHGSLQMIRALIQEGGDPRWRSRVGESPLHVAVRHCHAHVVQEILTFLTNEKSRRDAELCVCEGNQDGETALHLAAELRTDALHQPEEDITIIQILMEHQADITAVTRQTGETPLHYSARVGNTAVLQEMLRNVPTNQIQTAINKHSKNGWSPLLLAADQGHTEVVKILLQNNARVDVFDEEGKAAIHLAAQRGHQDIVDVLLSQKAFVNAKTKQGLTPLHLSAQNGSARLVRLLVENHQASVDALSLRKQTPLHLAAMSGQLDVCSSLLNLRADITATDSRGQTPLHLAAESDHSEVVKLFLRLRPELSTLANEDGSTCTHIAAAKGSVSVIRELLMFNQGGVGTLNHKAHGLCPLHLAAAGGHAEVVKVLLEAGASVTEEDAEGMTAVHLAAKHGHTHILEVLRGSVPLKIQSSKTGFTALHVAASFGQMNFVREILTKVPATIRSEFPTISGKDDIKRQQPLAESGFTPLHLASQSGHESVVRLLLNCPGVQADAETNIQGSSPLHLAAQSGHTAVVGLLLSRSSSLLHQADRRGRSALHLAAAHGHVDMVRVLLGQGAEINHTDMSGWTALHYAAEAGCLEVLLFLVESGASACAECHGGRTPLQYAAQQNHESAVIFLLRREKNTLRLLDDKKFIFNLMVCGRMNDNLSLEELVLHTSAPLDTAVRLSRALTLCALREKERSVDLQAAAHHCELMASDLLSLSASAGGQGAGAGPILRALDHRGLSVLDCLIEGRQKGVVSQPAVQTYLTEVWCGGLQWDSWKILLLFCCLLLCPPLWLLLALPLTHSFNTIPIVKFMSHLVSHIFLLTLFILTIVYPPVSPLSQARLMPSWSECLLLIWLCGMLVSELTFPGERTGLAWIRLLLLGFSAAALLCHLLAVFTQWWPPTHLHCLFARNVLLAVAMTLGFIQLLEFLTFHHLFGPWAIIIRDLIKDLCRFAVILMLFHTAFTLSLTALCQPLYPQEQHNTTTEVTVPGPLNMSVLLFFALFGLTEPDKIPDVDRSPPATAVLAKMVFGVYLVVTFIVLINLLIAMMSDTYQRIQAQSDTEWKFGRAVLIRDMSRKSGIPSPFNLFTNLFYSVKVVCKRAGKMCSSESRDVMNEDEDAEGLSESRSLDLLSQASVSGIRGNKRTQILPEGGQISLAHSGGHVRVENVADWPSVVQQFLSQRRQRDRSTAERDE
Chain of G-protein coupled receptor 55 (Q9Y2T6 whole entry): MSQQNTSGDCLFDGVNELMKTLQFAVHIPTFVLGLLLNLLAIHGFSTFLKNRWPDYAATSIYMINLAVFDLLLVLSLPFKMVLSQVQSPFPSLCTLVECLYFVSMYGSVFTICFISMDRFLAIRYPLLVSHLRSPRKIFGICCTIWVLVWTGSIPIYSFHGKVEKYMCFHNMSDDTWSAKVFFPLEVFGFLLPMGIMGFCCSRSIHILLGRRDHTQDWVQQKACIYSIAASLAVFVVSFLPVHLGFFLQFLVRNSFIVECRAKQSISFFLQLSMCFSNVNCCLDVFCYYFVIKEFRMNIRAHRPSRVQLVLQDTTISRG
Chain of NACHT, LRR and PYD domains-containing protein 3 (Q96P20 whole entry, the tested form may be a part): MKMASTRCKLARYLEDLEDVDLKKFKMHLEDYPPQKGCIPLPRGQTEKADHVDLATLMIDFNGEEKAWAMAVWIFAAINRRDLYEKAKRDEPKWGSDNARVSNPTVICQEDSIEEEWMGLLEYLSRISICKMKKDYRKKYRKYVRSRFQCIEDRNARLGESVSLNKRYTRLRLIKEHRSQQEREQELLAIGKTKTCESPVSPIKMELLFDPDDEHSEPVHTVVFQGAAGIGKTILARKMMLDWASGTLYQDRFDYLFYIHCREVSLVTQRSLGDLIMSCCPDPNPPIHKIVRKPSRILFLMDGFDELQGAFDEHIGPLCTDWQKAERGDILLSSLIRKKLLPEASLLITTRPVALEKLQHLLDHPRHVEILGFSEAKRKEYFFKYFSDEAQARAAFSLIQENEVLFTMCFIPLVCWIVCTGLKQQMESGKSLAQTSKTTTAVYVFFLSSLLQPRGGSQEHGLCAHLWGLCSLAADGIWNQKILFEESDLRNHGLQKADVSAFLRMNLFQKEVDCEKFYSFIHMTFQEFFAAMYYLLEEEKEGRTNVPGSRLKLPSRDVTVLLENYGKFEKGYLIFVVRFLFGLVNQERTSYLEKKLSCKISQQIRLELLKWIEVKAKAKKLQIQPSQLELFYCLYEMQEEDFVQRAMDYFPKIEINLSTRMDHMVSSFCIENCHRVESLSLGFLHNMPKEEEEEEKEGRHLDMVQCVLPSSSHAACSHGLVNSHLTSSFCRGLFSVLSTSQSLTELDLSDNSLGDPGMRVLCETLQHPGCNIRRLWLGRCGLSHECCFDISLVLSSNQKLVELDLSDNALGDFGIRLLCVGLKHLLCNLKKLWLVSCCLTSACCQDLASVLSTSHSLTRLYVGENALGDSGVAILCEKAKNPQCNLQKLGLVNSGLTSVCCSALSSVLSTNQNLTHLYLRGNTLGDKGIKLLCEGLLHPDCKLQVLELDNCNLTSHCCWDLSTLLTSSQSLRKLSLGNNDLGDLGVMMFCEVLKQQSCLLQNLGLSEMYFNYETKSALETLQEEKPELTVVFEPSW
Chain of X-box-binding protein 1 (P17861 whole entry): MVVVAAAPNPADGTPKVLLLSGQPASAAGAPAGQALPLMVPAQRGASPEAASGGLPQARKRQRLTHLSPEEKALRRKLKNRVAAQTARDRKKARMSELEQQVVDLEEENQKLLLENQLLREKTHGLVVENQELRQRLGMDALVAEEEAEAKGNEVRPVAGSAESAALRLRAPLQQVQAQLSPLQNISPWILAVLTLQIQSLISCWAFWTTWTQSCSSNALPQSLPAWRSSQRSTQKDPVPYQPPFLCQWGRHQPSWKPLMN
Chain of DNA damage-inducible transcript 3 protein (P35639 whole entry): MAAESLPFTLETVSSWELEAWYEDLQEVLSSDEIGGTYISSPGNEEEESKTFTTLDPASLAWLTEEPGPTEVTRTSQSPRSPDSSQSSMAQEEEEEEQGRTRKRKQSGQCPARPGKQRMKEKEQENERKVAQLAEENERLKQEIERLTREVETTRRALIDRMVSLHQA

C=CCN1C(=O)/C(=C/c2ccc(N3CCOCC3)o2)C(=O)NC1=S
EC50 (Troponin, cardiac muscle): 5.95 µM (active)

O=C(Nc1cccc(Cl)c1)c1cnn2cccnc12
EC50 (H4): 19.1 µM (active) | EC50 [1]: 3 µM (active) | EC50 [2]: 1.68 µM (active) | IC50 [3]: 8.19 µM (active)

O=c1oc2c3c4c(cc2c(C(F)(F)F)c1CCN1CCOCC1)CCCN4CCC3
EC50 (Mucolipin-3): 4.56 µM (active) | EC50 (Ion channel NompC): > 3.32 µM (inactive)

Cc1ccc(-n2cc3c(-c4ccc(Cl)cc4)nnc(C)c3n2)cc1
IC50 (Cannabinoid receptor 2 [4]): 29.8 µM (inactive) | IC50 [5]: > 32 µM (inactive) | IC50 [6]: 6.13 µM (active) | EC50 (Cannabinoid receptor 2 [7]): > 32 µM (inactive) | IC50 (Cannabinoid receptor 1 [8]): 0.87 µM (active) | EC50 [9]: > 32 µM (inactive) | EC50 (Cannabinoid receptor 1 [10]): > 32 µM (inactive)

CC(C)CCn1c(SCc2ccc(Cl)cc2)nc2c1c(=O)[nH]c(=O)n2C
Absolute IC50 (XBP1) (X-box-binding protein 1): 10 µM | EC50 [11]: 14.3 µM (active) | EC50 [12]: 13.3 µM (active) | Absolute IC50 (CHOP) [13]: < 10 µM | EC50 [14]: 11.6 µM (active)
